In US5168100A, “HP530 compounds and process for preparing the same” (Sapporo Breweries Limited, priority 1990, dated 1992):
In brackets after ≈: the same amount, converted by molar mass.

Key:
[1] = test system: Xanthomonas maltophilia JCM1975; assay: Antimicrobial activity (MIC), Xanthomonas maltophilia; assay type: cell-based; conditions: Stenotrophomonas maltophilia
From the text: (§1) The minimum inhibitory concentrations (MIC's) of the HP530 compounds and their derivatives of the invention against bacteria and fungi are shown in Table 2.

[2] = test system: Staphylococcus aureus JCM2151; assay: Antimicrobial activity (MIC), Staphylococcus aureus; assay type: cell-based
From the text: as §1

W98 cell line = assay: Cytotoxicity (IC100) against W98 cell line; assay type: cell-based; conditions: Homo sapiens; W98 cells, final 10% methanol solutions; read-out: IC100 (100% growth inhibiting concentration)
Experimental: 2) Cytotoxicity (IC100) against W98 cell line obtained by converting the lung cells of a human emryo by an SV40 virus was examined in the following way. When the HP530 compounds and their derivatives dissolved in methanol were added to culture solutions in such a manner that the culture solutions were prepared final 10% methanol solutions, the cytotoxicity of the HP530 compounds and their derivatives against the growth of the W98 cells in the culture solution was measured as 100% growth inhibiting concentration (IC100).

[3] = test system: mouse fibrosarcoma Meth-A cell line; assay: Antitumor activity, increase in life span of CDF1 mice inoculated with Meth-A cells; assay type: in vivo; conditions: day 1-4
From the text: 1) CDF1 mice were inoculated intraperitoneally with 1×10^6 cells of mouse fibrosarcoma Meth-A cell line on day 0. HP530 compounds and their derivatives dissolved in a physiological salt solution were administrated intraperitoneally once a day on day 1-4. Increase in life span is represented by the percentage of the ratio of the mean number of surviving days (T) of the treated groups of mice to the mean number of surviving days (C) of the untreated groups of mice.

[4] = test system: Bacillus subtilis M45Rec^-; assay: Antimicrobial activity (MIC), Bacillus subtilis M45Rec^-; assay type: cell-based
From the text: as §1

Proteus vulgaris JCM1668 = assay: Antimicrobial activity (MIC), Proteus vulgaris; assay type: cell-based
From the text: as §1

[5] = test system: Staphylococcus epidermidis JCM2414; assay: Antimicrobial activity (MIC), Staphylococcus epidermidis; assay type: cell-based
From the text: as §1

Escherichia coli JCM1649 = assay: Antimicrobial activity (MIC), Escherichia coli; assay type: cell-based
From the text: as §1

[6] = test system: Micrococcus luteus JCM1464; assay: Antimicrobial activity (MIC), Micrococcus luteus; assay type: cell-based
From the text: as §1

Candida albicans JCM1542 = assay: Antimicrobial activity (MIC), Candida albicans; assay type: cell-based
From the text: as §1

[7] = test system: Saccharomyces cerevisiae JCM1499; assay: Antimicrobial activity (MIC), Saccharomyces cerevisiae; assay type: cell-based
From the text: as §1

CDF1 mice = assay: Acute toxicity in CDF1 mice; assay type: in vivo, mouse; conditions: intraperitoneal, three CDF1 mice
[8] = test system: Salmonella typhimurium TA1535; assay: Antimicrobial activity (MIC), Salmonella typhimurium; assay type: cell-based; conditions: Salmonella enterica
From the text: as §1

[9] = test system: Klebsiella pneumoniae JCM1662; assay: Antimicrobial activity (MIC), Klebsiella pneumoniae; assay type: cell-based
From the text: as §1

[10] = test system: Bacillus subtilis H17Rec^+; assay: Antimicrobial activity (MIC), Bacillus subtilis H17Rec^+; assay type: cell-based
From the text: as §1

[11] = ethyl acetate, acetone, n-hexane
[12] = solvents in which soluble (acidic water, organic solvents)

Work on CC=CC1OC1(C)c1cc(=O)c2c(C)cc3c(c2o1)C(=O)c1c(ccc(C2CC(C)(N(C)C)C(O)C(C)O2)c1O)C3=O (stereo not drawn) [Deacetyl HP530D] yielded an MIC [1] of 50 µg/mL (≈ 87.2 µM), an MIC [2] of 1.6 µg/mL (≈ 2.79 µM) and an IC100 (W98 cell line) of 0.00015 µg/mL. The “Antitumor Activity T/C” value ([3]; 0.25 mg/kg i.p. once a day) was 92%, the “Antitumor Activity T/C” value ([3]; 0.5 mg/kg i.p. once a day) was 108% and the “Antitumor Activity T/C” value ([3]; 1.0 mg/kg i.p. once a day) was 123%. For the same molecule, the “Antitumor Activity T/C” value ([3]; 2.0 mg/kg i.p. once a day) was 185%, the MIC [4] was 0.4 µg/mL (≈ 0.697 µM) and the MIC (Proteus vulgaris JCM1668) was over 100 µg/mL. For the same molecule, the MIC [5] was 6.3 µg/mL (≈ 11 µM), the MIC (Escherichia coli JCM1649) was over 100 µg/mL and the MIC [6] was 1.6 µg/mL (≈ 2.79 µM). For the same molecule, the MIC (Candida albicans JCM1542) was over 100 µg/mL, the MIC [7] was 50 µg/mL (≈ 87.2 µM) and the Acute toxicity (CDF1 mice; 20 mg/kg) was “no toxicity”. The MIC [8] was 3.2 µg/mL (≈ 5.58 µM), the Solubility (Solubility; [11]) was “hardly soluble in ethyl acetate, acetone and n-hexane” and the Solubility (Solubility; [12]) was “Soluble in acidic water, methanol, chloroform and benzene”. The Solubility (Solubility; water) was “insoluble in water”, the MIC [9] was over 100 µg/mL and the MIC [10] was 12.5 µg/mL (≈ 21.8 µM).
With Cc1cc2c(c3oc(C4(C)OC4C)cc(=O)c13)C(=O)c1c(ccc(C3CC(C)(N(C)C)C(O)C(C)O3)c1O)C2=O (stereo not drawn) [Deacetyl HP530E] the MIC [1] was 25 µg/mL (≈ 45.7 µM), the MIC [2] was 3.2 µg/mL (≈ 5.84 µM) and the IC100 (W98 cell line) was 0.00015 µg/mL. For the same molecule, the “Antitumor Activity T/C” value ([3]; 1.25 mg/kg i.p. once a day) was 107%, the “Antitumor Activity T/C” value ([3]; 2.5 mg/kg i.p. once a day) was 183% and the “Antitumor Activity T/C” value ([3]; 5.0 mg/kg i.p. once a day) was over 187%. The “Antitumor Activity T/C” value ([3]; 10.0 mg/kg i.p. once a day) was 83%, the MIC [4] was 0.2 µg/mL (≈ 0.365 µM) and the MIC (Proteus vulgaris JCM1668) was over 100 µg/mL. The MIC [5] was 6.3 µg/mL (≈ 11.5 µM), the MIC (Escherichia coli JCM1649) was over 100 µg/mL and the MIC [6] was 0.4 µg/mL (≈ 0.73 µM). The MIC (Candida albicans JCM1542) was over 100 µg/mL, the MIC [7] was over 100 µg/mL and the Acute toxicity (CDF1 mice; 5 mg/kg) was “no toxicity”. For the same molecule, the MIC [8] was 0.4 µg/mL (≈ 0.73 µM), the Solubility (Solubility; [11]) was “hardly soluble in ethyl acetate, acetone and n-hexane” and the Solubility (Solubility; [12]) was “Soluble in acidic water, methanol, chloroform and benzene”. For the same molecule, the Solubility (Solubility; water) was “insoluble in water”, the MIC [9] was over 100 µg/mL and the MIC [10] was 6.3 µg/mL (≈ 11.5 µM).
For CC=CC1OC1(C)c1cc(=O)c2c(C)cc3c(c2o1)C(=O)c1c(ccc(C2CC(C)(N(C)C)C(OC(C)=O)C(C)O2)c1O)C3=O (stereo not drawn) [HP530D], the MIC [1] was 3.2 µg/mL (≈ 5.2 µM), the MIC [2] was 1.6 µg/mL (≈ 2.6 µM) and the IC100 (W98 cell line) was 0.0006 µg/mL. For the same molecule, the “Antitumor Activity T/C” value ([3]; 0.25 mg/kg i.p. once a day) was 108%, the “Antitumor Activity T/C” value ([3]; 0.5 mg/kg i.p. once a day) was 123% and the “Antitumor Activity T/C” value ([3]; 1.0 mg/kg i.p. once a day) was 192%. The “Antitumor Activity T/C” value ([3]; 2.0 mg/kg i.p. once a day) was over 215%, the MIC [4] was 0.4 µg/mL (≈ 0.65 µM) and the MIC (Proteus vulgaris JCM1668) was over 100 µg/mL. It also gave an MIC [5] of 3.2 µg/mL (≈ 5.2 µM), an MIC (Escherichia coli JCM1649) of over 100 µg/mL and an MIC [6] of 1.6 µg/mL (≈ 2.6 µM). For the same molecule, the MIC (Candida albicans JCM1542) was 100 µg/mL (≈ 162 µM), the MIC [7] was 6.3 µg/mL (≈ 10.2 µM) and the Acute toxicity (CDF1 mice; 10 mg/kg) was “no toxicity”. The MIC [8] was 1.6 µg/mL (≈ 2.6 µM), the Solubility (Solubility; [11]) was “hardly soluble in ethyl acetate, acetone and n-hexane” and the Solubility (Solubility; [12]) was “Soluble in acidic water, methanol and chloroform”. The Solubility (Solubility; water) was “insoluble in water”, the MIC [9] was over 100 µg/mL and the MIC [10] was 3.2 µg/mL (≈ 5.2 µM).
Molecule CC(=O)OC1C(C)OC(c2ccc3c(c2O)C(=O)c2c(cc(C)c4c(=O)cc(C5(C)OC5C)oc24)C3=O)CC1(C)N(C)C (stereo not drawn) [HP530E] has an MIC [1] of over 100 µg/mL, an MIC [2] of 6.3 µg/mL (≈ 10.7 µM) and an IC100 (W98 cell line) of 0.0006 µg/mL. The “Antitumor Activity T/C” value ([3]; 2.5 mg/kg i.p. once a day) was 104%, the “Antitumor Activity T/C” value ([3]; 5.0 mg/kg i.p. once a day) was 127% and the “Antitumor Activity T/C” value ([3]; 10.0 mg/kg i.p. once a day) was over 196%. The “Antitumor Activity T/C” value ([3]; 20.0 mg/kg i.p. once a day) was over 192%, the MIC [4] was 0.2 µg/mL (≈ 0.339 µM) and the MIC (Proteus vulgaris JCM1668) was over 100 µg/mL. It also gave an MIC [5] of over 100 µg/mL, an MIC (Escherichia coli JCM1649) of over 100 µg/mL and an MIC [6] of 0.8 µg/mL (≈ 1.36 µM). The MIC (Candida albicans JCM1542) was over 100 µg/mL, the MIC [7] was over 100 µg/mL and the Acute toxicity (CDF1 mice; 20 mg/kg) was “no toxicity”. The MIC [8] was 0.8 µg/mL (≈ 1.36 µM), the Solubility (Solubility; [11]) was “hardly soluble in ethyl acetate, acetone and n-hexane” and the Solubility (Solubility; [12]) was “Soluble in acidic water, methanol, chloroform and benzene”. The Solubility (Solubility; water) was “insoluble in water”, the MIC [9] was over 100 µg/mL and the MIC [10] was 12.5 µg/mL (≈ 21.2 µM).
CC=C(C)c1cc(=O)c2c(C)cc3c(c2o1)C(=O)c1c(ccc(C2CC(C)(N(C)C)C(OC(C)=O)C(C)O2)c1O)C3=O (stereo not drawn) [HP530G] gave an MIC [1] of over 100 µg/mL, an MIC [2] of 50 µg/mL (≈ 87.2 µM) and an IC100 (W98 cell line) of 0.1 µg/mL. For the same molecule, the “Antitumor Activity T/C” value ([3]; 2.5 mg/kg i.p. once a day) was 112%, the “Antitumor Activity T/C” value ([3]; 5.0 mg/kg i.p. once a day) was 123% and the “Antitumor Activity T/C” value ([3]; 10.0 mg/kg i.p. once a day) was 115%. For the same molecule, the “Antitumor Activity T/C” value ([3]; 20.0 mg/kg i.p. once a day) was 123%, the MIC [4] was 3.2 µg/mL (≈ 5.58 µM) and the MIC (Proteus vulgaris JCM1668) was over 100 µg/mL. For the same molecule, the MIC [5] was 25 µg/mL (≈ 43.6 µM), the MIC (Escherichia coli JCM1649) was over 100 µg/mL and the MIC [6] was 12.5 µg/mL (≈ 21.8 µM). For the same molecule, the MIC (Candida albicans JCM1542) was over 100 µg/mL, the MIC [7] was over 100 µg/mL and the Acute toxicity (CDF1 mice; 20 mg/kg) was “no toxicity”. For the same molecule, the MIC [8] was 100 µg/mL (≈ 174 µM), the Solubility (Solubility; [11]) was “hardly soluble in ethyl acetate, acetone and n-hexane” and the Solubility (Solubility; [12]) was “Soluble in acidic water, methanol, chloroform and benzene”. The Solubility (Solubility; water) was “insoluble in water”, the MIC [9] was over 100 µg/mL and the MIC [10] was 100 µg/mL (≈ 174 µM).
